According to PMC9479156 (Frontiers in Pharmacology, 2022):
Read-outs that look alike come from different tables or passages of the source.

Key:
[1] = tested on: LO2 human normal hepatocytes; test: MTT cytotoxicity assay LO2; assay type: cell-based; conditions: Hepatocyte, 72 h, read-out: IC50 LO2
Description: (§1) Proliferative and non-proliferative mammalian cell lines: human liver and lung cancer cell lines HepG2 and A549, and immortalized normal liver LO2 and lung BEAS-2B cells were purchased from ATCC (Manassas, VA, United States). Cells were cultured in RPMI-1640 medium supplemented with 10% fetal bovine serum and antibiotics penicillin (50 U/mL) and streptomycin (50 μg/ml; Invitrogen, United Kingdom). All cells were incubated at 37°C in a 5% humidified CO2 incubator.
(§2) All test compounds were dissolved in DMSO at a final concentration of 50 mM and stored at −20°C before use. Cytotoxicity was assessed with A549, HepG2, BEAS-2B and LO2 cells. The MTT assay with 3-(4,5-dimethylthiazole-2yl)-2,5-diphenyltetrazolium bromide (5 mg/ml) was performed as previously described ([Ng et al., 2022]). Briefly, 4 × 10^3 cells per well were seeded in 96-well plates before drug treatment. After overnight cell culture, the cells were exposed to different concentrations of selected compounds (0.19–100 μM) for 72 h. Cells without drug treatment were used as control. Next, 10 μl of the MTT solution was added to each well and incubated at 37°C for another 4 h. Solubilization buffer (100 μl) was then added (10 mM HCl in a solution of 10% of SDS) and incubated overnight. The absorbance A at 570 nm was measured on the next day. The percentage of cell viability was calculated using the following formula: Cell viability (%) = Atreated/Acontrol × 100. Dose response curves for all assays are given in the Supplementary Figures S3–S6.
(§3) Cytotoxicity was assessed for each of artemisinin, DHA and artemether, and the amino-artemisinins artemiside and artemisone, and celastrol against A549 human lung carcinoma, BEAS-2B non-tumorigenic human bronchial epithelium, HepG2 liver hepatocellular carcinoma and LO2 human normal hepatocytes using the MTT assay ([Ng et al., 2022]). Data are presented in Table 4, and dose response curves are given in the Supplementary Figures S3–S6.

[2] = tested on: A549 human lung carcinoma; test: MTT cytotoxicity assay A549; assay type: cell-based; conditions: for SI, selectivity index IC50 normal cell line/IC50 tumour cell line: BEAS-2B/A549; for IC50: Homo sapiens, read-out: IC50 A549
Description: as §1, §2, §3

[3] = tested on: asexual blood stage Pf NF54; test: Fixed-ratio isobole drug combination assay (SYBR Green I); assay type: cell-based, Plasmodium falciparum
Description: The in vitro interactions of celastrol with artemisone and MB was determined using a fixed-ratio isobole analysis on Pf NF54 asexual parasites (SYBR Green I-based fluorescence). […] The fractional inhibitory concentration (FIC) for each drug in the combination was calculated as follows:
FIC = IC50 of drug A in combination with drug B/IC50 of drug A
The paired FIC values for the drugs in each combination were linearly plotted to provide the isobologram. The ΣFIC of FIC of drug A in combination with FIC of drug B was determined by calculating the mean FIC value, to obtain the representative FIC value for the drug combination. Data obtained were analysed in Excel, and sigmoidal dose-response curves and isobolograms were plotted using GraphPad 6.0. Experiments were performed in triplicate, and repeated 3 times.
As previously recorded for each of artemiside and artemisone in combination with MB ([Coertzen et al., 2018]), drug-drug interactions were monitored through evaluation of fractional inhibitory concentration (FIC) as determined by isobolograms. A mean ΣFIC<1.0 represents a synergistic interaction, >1.3 an antagonistic interaction and ΣFIC = 1 an indifferent or additive interaction. Isobologram analysis of the combinations of each of artemisone and MB in combination with celastrol was performed against the asexual stages of Pf NF54 using the SYBR Green I based assay. In Table 3 are shown the calculated FIC values for the independent combinations at each ratio as well as the ∑FIC values for each combination. In Figure 5 are presented the independent isoboles for each drug combination.

[4] = tested on: HepG2 liver hepatocellular carcinoma; test: MTT cytotoxicity assay HepG2; assay type: cell-based, human; conditions: for IC50: Homo sapiens, read-out: IC50 HepG2; for SI, selectivity index IC50 normal cell line/IC50 tumour cell line: LO2/HepG2
Description: as §1, §2, §3

[5] = tested on: BEAS-2B non-tumorigenic human bronchial epithelium; test: MTT cytotoxicity assay BEAS-2B; assay type: cell-based; conditions: 72 h, read-out: IC50 BEAS-2B
Description: as §1, §2, §3

[6] = tested on: HepG2 liver hepatocellular carcinoma; test: Cytotoxicity drug combination (isobole) assay HepG2; assay type: cell-based, human
Description: (§4) For the drug combination inhibitory assays, six drug preparations, of which four comprised combinations of either artemiside or artemisone with celastrol in a fixed ratio of 80:20, 60:40, 40:60, and 20:80 were prepared and screened against HepG2 liver hepatocellular carcinoma and LO2 human normal hepatocytes respectively. Two of these six preparations employed each of artemiside, artemisone or celastrol alone at a concentration approximately 5–7 times higher than the IC50 of the individual drug as presented in Table 4. […] Thus, six combinations for artemiside (µM) and celastrol (µM) prepared were 500:0, 400:4, 300:8, 200:12, 100:16, and 0:20, respectively.
(§5) As above for the malaria combination assays, a mean ΣFIC<1.0 represents a synergistic interaction, >1.3 represents an antagonistic interaction and ΣFIC = 1 represents an indifferent or additive interaction. Additivity, synergism and antagonism were also be established from the linear plots constructed from the FIC values of each of the drugs. A concave hyperbolic plot indicates synergism, a convex hyperbolic plot indicates an antagonistic interaction, and a straight line indicates an additive interaction. Isobole analysis of the combinations of each of artemiside and artemisone in combination with celastrol was performed against HepG2 and LO2 cells respectively. In Figure 5 is presented the isoboles for each drug combination.
(§6) Next, combinations of each of artemiside and artemisone with celastrol were examined, according to the method used to establish additivity/synergism described above. […] Against the normal hepatocyte LO2 cell line, whilst the interaction of artemisone with celastrol was synergistic, that of artemiside was additive. Synergism and additivity were also evident from the linear plots determined from the FIC values of each of the drugs (Table 5 and Figure 6). Thus, synergism is confirmed for combinations of the amino-artemisinins with celastrol against the HepG2 carcinoma cell line, and for artemisone-celastrol against human normal hepatocyte LO2.

[7] = tested on: LO2 human normal hepatocytes; test: Cytotoxicity drug combination (isobole) assay LO2; assay type: cell-based
Description: as §4, §5, §6

[8] = artemisone:celastrol drug ratio 20:80, Pf NF54
[9] = artemisone:celastrol drug ratio 40:60, Pf NF54
[10] = artemisone:celastrol drug ratio 60:40, Pf NF54
[11] = artemisone:celastrol drug ratio 80:20, Pf NF54
[12] = artemisone:celastrol drug ratio 20:80, HepG2
[13] = artemisone:celastrol drug ratio 40:60, HepG2
[14] = artemisone:celastrol drug ratio 60:40, HepG2
[15] = artemisone:celastrol drug ratio 80:20, HepG2
[16] = artemisone:celastrol drug ratio 20:80, LO2
[17] = artemisone:celastrol drug ratio 40:60, LO2
[18] = artemisone:celastrol drug ratio 60:40, LO2
[19] = artemisone:celastrol drug ratio 80:20, LO2

C[C@H]1[C@H](N2CCS(=O)(=O)CC2)O[C@@H]2O[C@@]3(C)CC[C@H]4[C@H](C)CC[C@@H]1[C@@]24OO3 [Artemisone, artemisone]
IC50 ([1]; MTT, ± SD): > 100 µM | SI, selectivity index IC50 normal cell line/IC50 tumour cell line [2]: <0.7 | IC50 ([2]; A549, MTT, 72 h, ± SD): > 100 µM | FIC [3, 8]: 0.12 | FIC [3, 9]: 0.24 | FIC [3, 10]: 0.39 | FIC [3, 11]: 0.69 | IC50 ([4]; HepG2, MTT, 72 h, ± SD): 0.58 ± 0.2 µM | SI, selectivity index IC50 normal cell line/IC50 tumour cell line [4]: >171 | SI, selectivity index IC50 normal cell line/IC50 tumour cell line ([4]; listed as artemisone): > 170 | IC50 ([5]; MTT, ± SD): 73.6 ± 1.4 µM | FIC [6, 12]: 0.3 | FIC [6, 13]: 0.36 | FIC [6, 14]: 0.48 | FIC [6, 15]: 0.76 | FIC [7, 16]: 0.18 | FIC [7, 17]: 0.28 | FIC [7, 18]: 0.47 | FIC [7, 19]: 0.99

CC1=C(O)C(=O)C=C2C1=CC=C1[C@@]2(C)CC[C@@]2(C)[C@@H]3C[C@](C)(C(=O)O)CC[C@]3(C)CC[C@]12C [Celastrol, celastrol]
IC50 [1]: 0.78 ± 0.2 µM | SI, selectivity index IC50 normal cell line/IC50 tumour cell line [2]: 0.16 | IC50 ([2]; A549, 72 h): 2.83 ± 0.12 µM | FIC ([3]; MB:celastrol drug ratio 40:60, Pf NF54): 1.02 | FIC ([3]; MB:celastrol drug ratio 60:40, Pf NF54): 0.72 | FIC ([3]; MB:celastrol drug ratio 80:20, Pf NF54): 0.41 | FIC [3, 8]: 0.93 | FIC [3, 9]: 0.76 | FIC [3, 10]: 0.60 | FIC [3, 11]: 0.50 | IC50 ([4]; HepG2, 72 h): 0.94 ± 0.1 µM | SI, selectivity index IC50 normal cell line/IC50 tumour cell line [4]: 0.83 | SI, selectivity index IC50 normal cell line/IC50 tumour cell line ([4]; listed as celastrol): < 1 | IC50 [5]: 0.45 ± 0.1 µM | FIC ([6]; artemiside:celastrol drug ratio 20:80, HepG2): 0.35 | FIC ([6]; artemiside:celastrol drug ratio 40:60, HepG2): 0.34 | FIC ([6]; artemiside:celastrol drug ratio 60:40, HepG2): 0.14 | FIC ([6]; artemiside:celastrol drug ratio 80:20, HepG2): 0.08 | FIC [6, 12]: 0.88 | FIC [6, 13]: 0.4 | FIC [6, 14]: 0.23 | FIC [6, 15]: 0.14 | FIC ([7]; artemiside:celastrol drug ratio 20:80, LO2): 1.2 | FIC ([7]; artemiside:celastrol drug ratio 40:60, LO2): 1.56 | FIC ([7]; artemiside:celastrol drug ratio 60:40, LO2): 1.03 | FIC ([7]; artemiside:celastrol drug ratio 80:20, LO2): 0.48 | FIC [7, 16]: 0.7 | FIC [7, 17]: 0.4 | FIC [7, 18]: 0.29 | FIC [7, 19]: 0.23
